Where “and” joins values, the source holds several entries; their conditions need not be identical. Identical values can stand only once. Like-named read-outs stand apart in the source and are kept apart here.
Legend:
[1] = target: T1, human indoleamine 2,3-dioxygenase (hIDO) (Homo sapiens, UniProt P14902); assay: Stopped-flow binding kinetics
[2] = target: T1, human indoleamine 2,3-dioxygenase (hIDO); assay: Equilibrium ligand/substrate titration by optical absorption; format: binding; details: ferrous hIDO at 50 μM L-Trp, on the basis of Kd 400 μM
[3] = target: T1, human indoleamine 2,3-dioxygenase (hIDO); assay: Steady-state kinetics of hIDO; format: biochemical
[4] = target: T1, human indoleamine 2,3-dioxygenase (hIDO); details: cited from earlier work
[5] = tested on: rabbit indoleamine 2,3-dioxygenase (rIDO); details: cited from earlier work
[6] = target: T1, human indoleamine 2,3-dioxygenase (hIDO); details: L-Trp binding to ferric hIDO; cited from earlier work
[7] = target: rabbit indoleamine 2,3-dioxygenase (rIDO); details: read-out: Kd^eq, cited from earlier work
TDO (xcTDO) [8] = details: read-out: Kd^eq, cited from earlier work
TDO (xcTDO) [9] = details: cited from earlier work

T1 sequence (P14902 whole entry): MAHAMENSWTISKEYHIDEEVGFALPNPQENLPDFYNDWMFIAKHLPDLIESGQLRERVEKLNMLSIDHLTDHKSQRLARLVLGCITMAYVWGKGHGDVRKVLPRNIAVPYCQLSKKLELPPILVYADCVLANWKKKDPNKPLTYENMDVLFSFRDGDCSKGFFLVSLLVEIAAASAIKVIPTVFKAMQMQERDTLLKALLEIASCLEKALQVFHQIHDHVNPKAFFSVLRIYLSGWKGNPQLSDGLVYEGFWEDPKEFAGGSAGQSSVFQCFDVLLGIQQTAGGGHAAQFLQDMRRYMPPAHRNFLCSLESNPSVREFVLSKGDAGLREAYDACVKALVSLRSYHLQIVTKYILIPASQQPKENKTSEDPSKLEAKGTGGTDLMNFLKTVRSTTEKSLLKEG

In the case of `N[C@@H](Cc1c[nH]c2ccccc12)C(=O)O` [L-Trp, L-Tryptophan], the Kd ([1]; Fe^3+ + Trp, calculated from kinetic constants) is reported as 1000 µM, the Kd ([1]; Fe^3+–CN^− + Trp, calculated from koff/kon) is reported as 23 µM and the “binding of L-Trp to the second binding site” value ([1]; cyanide-bound ferric hIDO, higher L-Trp concentrations, stopped-flow) is reported as “too fast to be measured”. For the same compound, the “ΔΔG of L-Trp binding” value ([1]; effect of prebinding of cyanide, tighter substrate binding) was -2.3 kcal/mol, the “retardation of L-Trp dissociation by prebinding of cyanide” value ([1]; koff, cyanide-bound vs ligand-free ferric hIDO) was 2 fold and the “facilitation of L-Trp binding by prebinding of cyanide” value ([1]; kon, cyanide-bound vs ligand-free ferric hIDO) was ~ 22 fold and 22 fold. The observed rate constant ([1]; ligand-free ferric hIDO with 0.75 mM L-Trp, trace at 403 nm, 20 °C) was 10 s⁻¹, the “enzyme in the substrate-bound form” value [2] was ~ 5% and the “Km of L-Trp lower than Kd of L-Trp” value ([3]; Km (15 μM) vs Kd (0.4 mM) of ligand-free ferrous hIDO) was ~ 27 fold and 27 fold. The “Km lower than Kd (L-Trp)” value ([3]; Km (~15 μM) vs literature Kd (0.53 mM) of ligand-free hIDO) was ~ 40 fold, the “self-inhibition (substrate inhibition) constant Ksi” value ([4]; hIDO steady-state turnover) was 0.17 mM and the Km ([4]; read-out: Km of L-Trp, hIDO steady-state reactions) was 15 ± 2 µM. For the same compound, the Km [5] was 12 µM, the “kon, previously published” value [6] was 1.55e+10 M⁻¹ s⁻¹ and the Kd ([7]; rIDO Fe^2+ + Trp) was 13 µM. For the same compound, the Kd ([7]; rIDO Fe^3+ + Trp, ref 16) was 5800 µM, the Kd ([7]; rIDO Fe^3+ + Trp, ref 35) was 30000 µM and the Kd ([7]; rIDO Fe^3+–CN^− + Trp, ref 34) was 10 to 20 µM. For the same compound, the Kd ([7]; rIDO Fe^3+–CN^− + Trp, ref 35) was 16 µM, the Kd (TDO (xcTDO) [8]; TDO Fe^2+ + Trp) was 4.12 µM and the Kd (TDO (xcTDO) [8]; TDO Fe^3+ + Trp) was 3800 µM. The Km (TDO (xcTDO) [9]) was 114 µM.
